The numbers were not newly measured in US9988396B2, “Oxaziridine compound and production method thereof” (SEED RESEARCH INSTITUTE CO., LTD., priority 2016, dated 2018), which cites them from elsewhere.

In data set [1] the test system is PANC-1 pancreas cancer cell.
Data set [2] deals with pathogens of candidiasis. As to conditions: statement in background, from patent document 1 (WO2015/030197).
The subject of data set [3] is HepG2 liver cancer cell.

With `CC=C(Cc1ccccc1)C12CC(O)CCN1O2` (stereo not drawn) [Kakeromycin], the cytotoxicity result in data set [1] and in data set [3] was “shows cytotoxicity” in each case. Also, the “antifungal activity / antibacterial activity against pathogens of candidiasis” value in data set [2] is reported as “strong antibacterial activity”.
